Reference: US20200368288A1, “Hierarchic Neural Microphysiological System for Brain Function and Disorders” (The Trustees of Columbia University in the City of New York, priority 2018, published 2020)
Like-named read-outs stand apart in the source and are kept apart here.

Tests used:
MoNNet neurons = experiment: Whole cell electrophysiology recordings in MoNNet, synaptic transmission across spheroids; type: cell-based, mice
Procedure: Whole cell recordings were performed as described previously (Crabtree et al., 2016; Crabtree et al., 2017), using borosilicate glass pipettes (initial resistance 3-5.5 MS2) which were filled with an intracellular solution containing: K methanesulfonate 125 mM, NaCl 10 mM, CaCl2) 1 mM, MgCl2 1 mM, HEPES 10 mM, EGTA 0.1 mM, MgATP 5 mM, NaGTP 0.5 mM. The pH was adjusted to 7.2 with KOH. Spontaneous synaptic events were assessed at −70 mV (presumptive glutamatergic) and at 0 mV (presumptive GABAergic). Excitatory and inhibitory evoked synaptic responses were assessed as follows. Evoked synaptic responses across spheroid units were elicited with electric stimulation applied with a concentric bipolar stimulating electrode (tip diameter 0.125 mm, FHC, Bowdinham, Me.) positioned on a spheroid >250 μm away from the spheroid containing the recorded neuron. The stimulus was set to 10V, a duration of 100 μs and applied at 10 Hz. […] Neurons were then held in voltage-clamp at 0 mV to assess evoked inhibitory synaptic responses. For assessing neuronal excitability in current-step, action potential firing was recorded in response to incremental (20 pA steps) depolarizing current injections (500 ms duration). Bridge balance of series resistance was employed and recordings with series resistance >20 MΩ were rejected. For current-step assays, resting membrane potential was adjusted to ˜−70 mV by injection of a small standing current. For voltage steps, cells were held at −70 mV, and 10 mV steps were applied ranging from −100 mV to 50 mV. Series resistance-related errors were partially corrected by using 70% prediction and 70% series resistance compensation.

NNet preparations = experiment: Chronic ketamine treatment NNet model of schizophrenia pathophysiology, calcium imaging; conditions: ketamine 10 μM every 24 hours vs saline control; imaging before and 2 days after
NNet preparation = experiment: Modeling epileptic seizures with NNet (4-AP local injection, picrotoxin addition); type: cell-based
Procedure: 4-AP, a commonly used seizure inducing compound, was injected in a specific neurosphere of an NNet preparation. […] As shown in the magnified view (top row, third) these peaks are maintained during the time. […] In FIG. 6 the colored maps (bottom) show the spatial progression of the seizure waves in three different bouts (labeled as Epi. Events #1, #2, and #3). The directionality of seizure spread is maintained constant from bottom-left to top-right.

LSD1 = LSD1 (Mus musculus, UniProt Q6ZQ88); conditions: Mukai et al., 2019; cited from earlier work
Setd1a+/− MoNNets = experiment: Rescue of Setd1a+/- MoNNet network pathophysiology by LSD1 inhibition, Ca2+ imaging before and after treatment; type: cell-based, mice
Excerpt: Taking advantage of MoNNet properties, effective in vitro models of SCZ-associated network pathophysiology (SCZ-MoNNets) were developed. SCZ is characterized by psychosis, cognitive dysfunction and a broad spectrum of complex behavioral abnormalities (Clementz et al., 2016). Several recent studies in animal models have investigated the underlying circuit pathophysiology, identifying deficits in activity synchrony and degraded ensembles (Fenelon et al., 2013; Hamm et al., 2017; Hamm et al., 2020; Marissal et al., 2018; Sigurdsson et al., 2010; Zaremba et al., 2017). Therefore, the MoNNet approach provides a well suited system to develop quantitative in vitro models of SCZ-like network function pathophysiology. We developed and characterized MoNNet preparations (SCZ-MoNNets) from two well-studied genetic models—Setd1a+/− and Df(16)A+/−, which recapitulate SCZ-related cognitive and circuitry pathophysiology (Fenelon et al., 2013; Mukai et al., 2019). […] The lower-level deviations in molecular, cellular and synaptic pathways underlying the observed alterations in network states remain to be determined and may be different for each mutation.
Hippocampal neuronal cultures were generated from E17 to E18 embryos by building upon standard cell culture techniques, as follows. Pregnant mice were anesthetized under isoflurane, and euthanized by cervical dislocation. Hippocampus were dissected in Hibernate E (Gibco) iced cold media, and incubated in 0.25% Trypsin-EDTA (Gibco) at 37° C. for […]., followed by […] DNAse I (1 μg/ml; Sigma) incubation at room temperature. Mechanical dissociation of dissected hippocampus was performed by repeated pipetting with a fire-polished glass Pasteur pipet until a homogenous cell suspension was obtained. Cell viability was determined by Trypan Blue exclusion assay. Cell solution was then centrifuged at 150 g for […], and the supernatant was removed. Resulting cell pellet was resuspended in the culture media containing Neurobasal media, 2% B27, 0.5 mM Glutamate and 1% Penicillin/Streptomycin (Gibco). Cells were infected with AAV1.Syn.GCaMP6f.WPRE.SV40 virus ((Chen et al., 2013); Pennsylvania Vector Core, Cat #:AV-1-PV2822). For single spheroid cultures, 2% agarose 96 wells (400 μm diameter) micro-molds were created by using custom casts fabricated by 3D printing (UV-resin; Formlabs 3D printer). The agarose micro molds were equilibrated in the culture medium over a 24 h period prior to plating. […]
Imaging was performed using a wide-field fluorescence microscope (Leica M165FC) equipped with a long-pass GFP filter set (Leica filter set ET GFP M205FA/M165FC), 1.6× Plan Apo objective, 3.2× zoom and sCMOS camera (Hamamatsu ORCA-Flash 4.0). Time-lapse videos were recorded at 30 Hz for ˜4.5 min at 37° C. […]

[1] = 2-day treatment, TCP 600 nM, ORY-1001 0.6-0.9 nM
[2] = picrotoxin added after 4-AP local injection

## N#Cc1cc2[nH]c(=O)c(=O)[nH]c2cc1[N+](=O)[O-] [CNQX]
MoNNet neurons; CNQX 10 μM blockade of glutamatergic transmission, cell held at 0 mV
  evoked inhibitory synaptic transmission across spheroids: robust evoked inhibitory synaptic transmission
MoNNet neurons; CNQX 10 μM washed in with ACSF, voltage-clamp at −70 mV, 10 Hz stimulation of neighboring spheroid
  evoked excitatory synaptic responses: completely ablated
MoNNet neurons; CNQX 10 μM, neuron held at 0 mV
  spontaneous inhibitory synaptic events: reduction

## CNC1(c2ccccc2Cl)CCCCC1=O (stereo not drawn) [ketamine]
NNet preparations
  correlation among neurosphere units of NNet: decreased

## Nc1ccncc1 [4-AP]
NNet preparation; local injection in a specific neurosphere
  seizure peaks: typical high seizure peaks

## N[C@H]1CC[C@H](N[C@@H]2C[C@H]2c2ccccc2)CC1 [ORY-1001]
LSD1
  cellular and behavioral defects: effective in partial rescue
Setd1a+/− MoNNets; [1]
  ensembles stability: partial rescue
  network synchrony: partial rescue

## N[C@@H]1C[C@H]1c1ccccc1 (racemic) [TCP, Tranylcypromine]
Setd1a+/− MoNNets
  ensembles stability: partial rescue
  network synchrony: partial rescue

## picrotoxin
NNet preparation; [2]
  directionality of seizure spread: directionality becomes random
  frequency of number of events: increased frequency of number of events
